From PubChem BioAssay (NCI)
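Growth conditions: 96-well plates. Treatment: test compound, 48 hours, 5 concentrations. Analysis: linear interpolation between bracketing concentrations; unreached endpoints set to highest concentration. TGI: concentration producing complete growth inhibition.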

What was measured:
Assay in all cases: growth of human tumour cells (NCI), 48 h
[1] = test system: SK-MEL-28 melanoma
[2] = test system: SNB-75 CNS
[3] = test system: HCT-15 colon
[4] = test system: DU-145 prostate
[5] = test system: SK-OV-3 ovarian
[6] = test system: IGROV1 ovarian
[7] = test system: HS 578T breast
[8] = test system: HOP-92 NSCLC
[9] = test system: SF-268 CNS
[10] = test system: BT-549 breast
[11] = test system: ACHN renal
[12] = test system: OVCAR-5 ovarian
[13] = test system: UACC-62 melanoma
[14] = test system: MDA-MB-435
[15] = test system: SK-MEL-5 melanoma
[16] = test system: COLO 205 colon
[17] = test system: A549 NSCLC
[18] = test system: SNB-19 CNS
[19] = test system: MOLT-4 leukemia
[20] = test system: TK-10 renal
[21] = test system: M14 melanoma
[22] = test system: U251 CNS
[23] = test system: HCT-116 colon
[24] = test system: MALME-3M melanoma
[25] = test system: NCI-H522 lung
[26] = test system: EKVX NSCLC
[27] = test system: HOP-62 NSCLC
[28] = test system: T-47D breast
[29] = test system: HT29 colon
[30] = test system: NCI-H460 lung
[31] = test system: SR leukemia
[32] = test system: SN12C renal
[33] = test system: SF-295 CNS
[34] = test system: OVCAR-4 ovarian
[35] = test system: MDA-MB-231 breast
[36] = test system: 786-0 renal
[37] = test system: CCRF-CEM leukemia
[38] = test system: MDA-N
[39] = test system: HCC-2998 colon
[40] = test system: UO-31 renal
[41] = test system: SW-620 colon
[42] = test system: MCF7 breast
[43] = test system: CAKI-1 renal
[44] = test system: LOX IMVI melanoma
[45] = test system: NCI-H23 lung
[46] = test system: RXF 393 renal
[47] = test system: PC-3 prostate
[48] = test system: UACC-257 melanoma
[49] = test system: SK-MEL-2 melanoma
[50] = test system: K-562 leukemia
[51] = test system: KM12 colon
[52] = test system: OVCAR-8 ovarian
[53] = test system: HL-60(TB) leukemia
[54] = test system: NCI/ADR-RES ovarian
[55] = test system: RPMI-8226 leukemia
[56] = test system: OVCAR-3 ovarian
[57] = test system: NCI-H226 lung
[58] = test system: A498 renal

Measured: TGI

COC(=O)CSC1CC(=O)c2c(Cl)sc(Cl)c21 (stereo not drawn)
not listed: [53] | [54] | [55] | [56] | [57] | [58]
> 100 µM: all other assays above

O=C1OC(c2ccccc2)=N/C1=C\c1ccc(F)cc1
not listed: [24] | [33] | [42]
> 100 µM: all other assays above

O=C1OC(=O)C2=C1C(c1cccs1)C=C(c1cccnc1)N2c1ccncc1 (stereo not drawn)
56.8 µM: [57]
84.6 µM: [50]
35.3 µM: [33]
31.6 µM: [20]
29.5 µM: [47]
68.5 µM: [5]
82.3 µM: [54]
58.1 µM: [41]
51.5 µM: [58]
37.3 µM: [13]
29.7 µM: [43]
32.1 µM: [30]
29.4 µM: [25]
31.4 µM: [26]
29.3 µM: [6] | [56]
34.5 µM: [46]
34.7 µM: [45]
39.6 µM: [35]
41.7 µM: [27]
27.3 µM: [23]
40.8 µM: [17]
73.8 µM: [19]
40.2 µM: [15]
28.5 µM: [12]
30.3 µM: [40]
30.2 µM: [4]
8.73 µM: [31]
27.1 µM: [8] | [39]
50 µM: [37]
71.4 µM: [7]
48.7 µM: [52]
26.1 µM: [51]
32.5 µM: [49]
64.4 µM: [53]
38.9 µM: [18]
33.9 µM: [38]
35.8 µM: [2]
30.1 µM: [3] | [11]
27 µM: [21] | [44]
36.1 µM: [10]
32.9 µM: [32] | [36]
60.2 µM: [55]
36 µM: [34]
31.8 µM: [16]
24.7 µM: [48]
49.9 µM: [14]
30.4 µM: [29]
37 µM: [28]
48.2 µM: [9]
35.4 µM: [22]
75.2 µM: [1]
